Measured values published in PubChem BioAssay (NCI).
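Briefly, cells in 96-well plates were exposed to five compound concentrations for 48 h, and endpoints were estimated by linear interpolation. GI50 marks 50% less growth. At the TGI there is no net growth.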

What was measured:
Assay in all cases: NCI tumour cell line growth inhibition, 48 h
COLO 205 colon = system: COLO 205 colon
OVCAR-5 ovarian = system: OVCAR-5 ovarian
SR leukemia = system: SR leukemia
ACHN renal = system: ACHN renal
HT29 colon = system: HT29 colon
SW-620 colon = system: SW-620 colon
OVCAR-3 ovarian = system: OVCAR-3 ovarian
DU-145 prostate = system: DU-145 prostate
TK-10 renal = system: TK-10 renal
SK-MEL-2 melanoma = system: SK-MEL-2 melanoma

| Compound | GI50 (COLO 205 colon) | TGI (COLO 205 colon) | GI50 (OVCAR-5 ovarian) | TGI (OVCAR-5 ovarian) | GI50 (SR leukemia) | TGI (SR leukemia) | GI50 (ACHN renal) | TGI (ACHN renal) | GI50 (HT29 colon) | TGI (HT29 colon) | GI50 (SW-620 colon) | TGI (SW-620 colon) | GI50 (OVCAR-3 ovarian) | TGI (OVCAR-3 ovarian) | GI50 (DU-145 prostate) | TGI (DU-145 prostate) | GI50 (TK-10 renal) | TGI (TK-10 renal) | TGI (SK-MEL-2 melanoma) | GI50 (SK-MEL-2 melanoma) |
| --- | --- | --- | --- | --- | --- | --- | --- | --- | --- | --- | --- | --- | --- | --- | --- | --- | --- | --- | --- | --- |
| Nc1c(S(=O)(=O)O)cc2c(c1Cl)C(=O)c1ccccc1C2=O | > 100 µM | > 100 µM | > 100 µM | > 100 µM | > 100 µM | > 100 µM | > 100 µM | > 100 µM | > 100 µM | > 100 µM | > 100 µM | > 100 µM | > 100 µM | > 100 µM | > 100 µM | > 100 µM | > 100 µM | > 100 µM | – | – |
| C=C1[C@@H]2CCC(C)(C)[C@H]1CCC(=O)[C@@H]2C(=O)OC | – | > 100 µM | – | – | – | > 100 µM | – | > 100 µM | – | > 100 µM | – | > 100 µM | – | > 100 µM | – | – | – | > 100 µM | > 100 µM | – |
| OCC1C2C=CC(O2)[C@H]1CO (stereo partly drawn) | – | > 100 µM | – | > 100 µM | – | > 100 µM | – | > 100 µM | – | > 100 µM | – | > 100 µM | – | > 100 µM | – | – | – | > 100 µM | – | – |
| N=C(N)c1ccc(-c2ccc(-c3ccccc3)o2)o1 | 1.78 µM | 3.49 µM | 2.7 µM | 10.9 µM | – | – | 2.56 µM | 6.73 µM | 2.11 µM | 4.7 µM | 1.79 µM | 4.2 µM | 3.13 µM | 11.9 µM | 3.3 µM | 11.6 µM | 3.32 µM | 11.4 µM | 4.2 µM | 2.25 µM |
| CC12CCC(C)(c3cc(O)c(O)cc31)c1cc(O)c(O)cc12 | – | 30 µM | – | 48.1 µM | – | – | – | 32.5 µM | – | 33.2 µM | – | 40.9 µM | – | 32.6 µM | – | – | – | 40.3 µM | > 100 µM | – |
| COC(=O)C1=CCS(=O)(=O)C1 | – | > 100 µM | – | > 100 µM | – | – | – | > 100 µM | – | > 100 µM | – | > 100 µM | – | > 100 µM | – | – | – | > 100 µM | > 100 µM | – |
| Clc1ccc2c(NCCCNCc3ccc4c(c3)OCO4)ccnc2c1 | 1.73 µM | 3.48 µM | 5.41 µM | 18.8 µM | 1.99 µM | 4.67 µM | 3.45 µM | 12 µM | 2.23 µM | 6.85 µM | 2.96 µM | 11.1 µM | 5.14 µM | 18.7 µM | – | – | 2.19 µM | 5.54 µM | 4.56 µM | 2.03 µM |
| Nc1nc(N)c(N=Nc2ccc([As](=O)(O)O)c(O)c2)c(N)n1 | – | > 100 µM | – | > 100 µM | – | – | – | > 100 µM | – | > 100 µM | – | > 100 µM | – | > 64.2 µM | – | 38.1 µM | – | > 51.8 µM | > 59.9 µM | – |
| O=C(O)c1cccc(F)c1C(=O)c1ccc2ccccc2c1 | – | 6.1 µM | – | > 100 µM | – | – | – | > 100 µM | – | > 100 µM | – | > 100 µM | – | > 100 µM | – | – | – | > 100 µM | > 100 µM | – |
